Assay [1] concerns the target T1, Protein mono-ADP-ribosyltransferase PARP15 (Homo sapiens, UniProt Q460N3).
T1 sequence (Q460N3 whole entry): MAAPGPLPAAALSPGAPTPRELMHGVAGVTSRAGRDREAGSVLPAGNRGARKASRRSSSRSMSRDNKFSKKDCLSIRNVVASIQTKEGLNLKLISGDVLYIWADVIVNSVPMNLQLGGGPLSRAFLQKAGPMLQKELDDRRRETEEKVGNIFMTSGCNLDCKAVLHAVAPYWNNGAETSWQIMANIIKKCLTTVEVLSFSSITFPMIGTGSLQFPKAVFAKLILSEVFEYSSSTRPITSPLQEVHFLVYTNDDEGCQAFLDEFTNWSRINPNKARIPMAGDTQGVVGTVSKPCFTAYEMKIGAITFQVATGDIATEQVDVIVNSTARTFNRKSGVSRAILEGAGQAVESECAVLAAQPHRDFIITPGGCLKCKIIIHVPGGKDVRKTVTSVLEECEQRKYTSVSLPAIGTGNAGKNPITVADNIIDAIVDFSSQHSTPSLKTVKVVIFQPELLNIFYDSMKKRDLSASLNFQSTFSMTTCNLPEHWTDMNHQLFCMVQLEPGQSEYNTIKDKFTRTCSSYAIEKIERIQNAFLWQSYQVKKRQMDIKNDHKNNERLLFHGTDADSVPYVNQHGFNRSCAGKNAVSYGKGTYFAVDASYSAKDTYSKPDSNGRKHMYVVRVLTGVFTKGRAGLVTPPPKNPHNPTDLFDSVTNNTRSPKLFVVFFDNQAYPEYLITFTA
Briefly: Inhibition of N-terminal his-tagged human PARP15 expressed in Escherichia coli Rosette2 (DE3).

Assay [2] addresses T2, Poly [ADP-ribose] polymerase tankyrase-2 (Homo sapiens, UniProt Q9H2K2).
T2 sequence (Q9H2K2 whole entry): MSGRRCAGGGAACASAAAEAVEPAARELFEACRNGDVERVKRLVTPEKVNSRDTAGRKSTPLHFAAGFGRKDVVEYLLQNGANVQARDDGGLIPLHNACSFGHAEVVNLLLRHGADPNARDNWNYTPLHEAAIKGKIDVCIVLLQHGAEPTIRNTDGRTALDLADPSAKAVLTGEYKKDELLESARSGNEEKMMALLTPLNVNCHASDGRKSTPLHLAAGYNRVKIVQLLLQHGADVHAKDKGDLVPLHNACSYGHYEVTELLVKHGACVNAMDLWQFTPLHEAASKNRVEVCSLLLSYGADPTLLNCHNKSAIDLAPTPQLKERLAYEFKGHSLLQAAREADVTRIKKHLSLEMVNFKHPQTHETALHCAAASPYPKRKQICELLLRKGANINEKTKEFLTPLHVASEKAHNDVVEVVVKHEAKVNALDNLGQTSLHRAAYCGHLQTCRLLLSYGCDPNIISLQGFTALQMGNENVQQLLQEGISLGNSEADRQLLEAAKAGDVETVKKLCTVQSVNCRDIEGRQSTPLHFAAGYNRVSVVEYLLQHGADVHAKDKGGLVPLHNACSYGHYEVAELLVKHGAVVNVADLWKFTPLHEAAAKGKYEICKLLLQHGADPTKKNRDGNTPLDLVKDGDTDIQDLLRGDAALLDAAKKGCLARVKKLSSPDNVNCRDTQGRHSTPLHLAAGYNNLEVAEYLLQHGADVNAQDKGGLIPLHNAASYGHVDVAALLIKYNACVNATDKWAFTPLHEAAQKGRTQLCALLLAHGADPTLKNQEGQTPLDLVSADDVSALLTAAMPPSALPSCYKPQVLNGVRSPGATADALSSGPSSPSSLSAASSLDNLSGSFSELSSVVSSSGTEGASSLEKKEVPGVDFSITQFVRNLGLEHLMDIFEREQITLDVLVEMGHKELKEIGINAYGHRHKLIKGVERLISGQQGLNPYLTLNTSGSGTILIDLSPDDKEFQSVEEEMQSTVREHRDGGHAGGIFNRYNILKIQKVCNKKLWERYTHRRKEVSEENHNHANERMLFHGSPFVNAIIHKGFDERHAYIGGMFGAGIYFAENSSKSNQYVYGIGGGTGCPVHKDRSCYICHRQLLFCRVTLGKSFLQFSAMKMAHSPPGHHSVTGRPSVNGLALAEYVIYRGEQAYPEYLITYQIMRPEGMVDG
The assay can be described thus: Inhibition of N-terminal his-tagged human TNKS2 expressed in Escherichia coli Rosette2 (DE3).

The next assay concerns HeLa. Briefly: Cytoprotective activity against human HeLa cells assessed as rescue of PARP10-induced cell death by measuring number of colonies treated for 8 to 10 days followed by compound replenishment for every 3 days by methylene blue staining based assay. The assay is classed as functional.

Turning to `NC(=O)c1ccc(Oc2cccc(C(N)=O)c2)cc1`, the IC50 in assay [1] turned out to be 1700 nM; in assay [2], 6500 nM; in the assay with HeLa it was 1800 nM.

As to `N#Cc1ccc(Oc2ccc(C(N)=O)cc2)cc1`, the IC50 in assay [1] is 11000 nM; in assay [2], > 100000 nM; in the assay with HeLa, 1700 nM.

(Values after ChEMBL document CHEMBL5120882, “Medicinal Chemistry Perspective on Targeting Mono-ADP-Ribosylating PARPs with Small Molecules” (J Med Chem, 2022).)
